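In this assay, cells in 96-well plates receive the compound at five concentrations for 48 hours. Endpoints are linearly interpolated between the surrounding concentrations. Here, GI50 denotes the concentration required for 50% inhibition of growth.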 Calls of active or inactive are those of the source. Cut-off read from the data, not from the text of the source: active = GI50 up to about 1.1 µM and inactive = higher.
Legend:
Experiment in all cases: NCI anticancer screen, dose series, 48 h
SF-295 = system: SF-295
CAKI-1 = system: CAKI-1
SF-539 = system: SF-539
DU-145 = system: DU-145
NCI-H226 = system: NCI-H226
MOLT-4 = system: MOLT-4
NCI/ADR-RES = system: NCI/ADR-RES
K562 = system: K562
MCF7 = system: MCF7
KM12 = system: KM12
MDA-MB-435 = system: MDA-MB-435
HT-29 = system: HT-29
OVCAR-4 = system: OVCAR-4
SNB-75 = system: SNB-75
HCT-116 = system: HCT-116
COLO 205 = system: COLO 205
UACC-257 = system: UACC-257
U-251 = system: U-251
EKVX = system: EKVX
SK-OV-3 = system: SK-OV-3
LOX IMVI = system: LOX IMVI
RXF 393 = system: RXF 393
IGROV-1 = system: IGROV-1
MDA-N = system: MDA-N
HOP-92 = system: HOP-92
HOP-62 = system: HOP-62
MDA-MB-231 = system: MDA-MB-231
M14 = system: M14
NCI-H522 = system: NCI-H522
SNB-19 = system: SNB-19
RPMI-8226 = system: RPMI-8226
HCT-15 = system: HCT-15
NCI-H23 = system: NCI-H23
UO-31 = system: UO-31
OVCAR-5 = system: OVCAR-5
Malme-3M = system: Malme-3M
ACHN = system: ACHN
SN12C = system: SN12C
PC-3 = system: PC-3
T47D = system: T47D
HCC 2998 = system: HCC 2998
SK-MEL-5 = system: SK-MEL-5
CCRF-CEM = system: CCRF-CEM
TK-10 = system: TK-10
786-0 = system: 786-0
SK-MEL-28 = system: SK-MEL-28
OVCAR-8 = system: OVCAR-8
A549 = system: A549
SK-MEL-2 = system: SK-MEL-2
UACC-62 = system: UACC-62
OVCAR-3 = system: OVCAR-3
NCI-H460 = system: NCI-H460
SW-620 = system: SW-620
Hs-578T = system: Hs-578T
HL-60 = system: HL-60
SR = system: SR
SF-268 = system: SF-268
A498 = system: A498

Measured: GI50

COc1nc2sc3c(c2c(=O)n1CCCSSCCCn1c(OC)nc2sc4c(c2c1=O)CCCC4)CCCC3
> 100 µM: HCT-15
inactive: SF-295 > 100 µM | CAKI-1 > 100 µM | SF-539 > 100 µM | DU-145 > 100 µM | NCI-H226 > 100 µM | MOLT-4 > 100 µM | NCI/ADR-RES > 100 µM | K562 > 100 µM | MCF7 > 100 µM | KM12 > 100 µM | MDA-MB-435 > 100 µM | HT-29 > 100 µM | OVCAR-4 > 100 µM | SNB-75 > 100 µM | HCT-116 > 100 µM | COLO 205 > 100 µM | UACC-257 > 100 µM | U-251 > 100 µM | EKVX > 100 µM | SK-OV-3 > 100 µM | LOX IMVI > 100 µM | RXF 393 > 100 µM | IGROV-1 > 100 µM | MDA-N > 100 µM | HOP-92 > 100 µM | HOP-62 > 100 µM | MDA-MB-231 > 100 µM | M14 > 100 µM | NCI-H522 > 100 µM | SNB-19 > 100 µM | RPMI-8226 6.92 µM | NCI-H23 > 100 µM | UO-31 > 100 µM | OVCAR-5 > 100 µM | Malme-3M > 100 µM | ACHN > 100 µM | SN12C > 100 µM | PC-3 > 100 µM | T47D > 100 µM | HCC 2998 > 100 µM | SK-MEL-5 > 100 µM | CCRF-CEM > 100 µM | TK-10 > 100 µM | 786-0 > 100 µM | SK-MEL-28 > 100 µM | OVCAR-8 > 100 µM | A549 > 100 µM | SK-MEL-2 > 100 µM | UACC-62 > 100 µM

COc1ccc(N[S+]([O-])c2cccc(C)c2)cc1 (stereo not drawn)
5.21 µM: HCT-15
inactive: SF-295 > 100 µM | CAKI-1 98.6 µM | SF-539 27.8 µM | DU-145 > 100 µM | NCI-H226 > 100 µM | MOLT-4 35.3 µM | NCI/ADR-RES 14 µM | K562 9.73 µM | MCF7 75.5 µM | OVCAR-3 > 100 µM | KM12 17.5 µM | MDA-MB-435 34.9 µM | NCI-H460 30 µM | HT-29 92.9 µM | SNB-75 > 100 µM | SW-620 57.5 µM | HCT-116 32.7 µM | COLO 205 59.6 µM | UACC-257 > 100 µM | U-251 79.1 µM | EKVX 12.2 µM | LOX IMVI 17.3 µM | RXF 393 54.5 µM | IGROV-1 28.3 µM | MDA-N > 100 µM | Hs-578T 87.9 µM | HOP-62 64 µM | MDA-MB-231 48.5 µM | M14 > 100 µM | NCI-H522 8.59 µM | SNB-19 > 100 µM | RPMI-8226 26.2 µM | NCI-H23 > 100 µM | UO-31 20.4 µM | OVCAR-5 > 100 µM | Malme-3M 75.5 µM | ACHN 7.76 µM | SN12C > 100 µM | PC-3 > 100 µM | HL-60 25.7 µM | HCC 2998 3.88 µM | SK-MEL-5 25.6 µM | CCRF-CEM 48 µM | TK-10 > 100 µM | 786-0 > 100 µM | SK-MEL-28 33 µM | OVCAR-8 52.1 µM | A549 29.3 µM | SR 35.9 µM | SF-268 30.5 µM

CCOC(=O)/C(=C\n1c(=O)sc2ccccc21)C(=O)c1ccccc1
> 100 µM: HCT-15
inactive: SF-295 88.1 µM | CAKI-1 25.4 µM | SF-539 > 100 µM | DU-145 > 100 µM | NCI-H226 > 100 µM | MOLT-4 > 100 µM | NCI/ADR-RES > 100 µM | K562 44.3 µM | MCF7 > 100 µM | KM12 > 100 µM | MDA-MB-435 > 100 µM | NCI-H460 > 100 µM | HT-29 > 100 µM | OVCAR-4 > 100 µM | SNB-75 53.8 µM | SW-620 > 100 µM | HCT-116 > 100 µM | COLO 205 > 100 µM | UACC-257 > 100 µM | U-251 > 100 µM | EKVX > 100 µM | SK-OV-3 > 100 µM | LOX IMVI > 100 µM | A498 > 100 µM | RXF 393 > 100 µM | IGROV-1 20 µM | Hs-578T 39.6 µM | HOP-62 > 100 µM | MDA-MB-231 63 µM | M14 > 100 µM | NCI-H522 48 µM | RPMI-8226 39.6 µM | NCI-H23 > 100 µM | UO-31 26 µM | OVCAR-5 > 100 µM | Malme-3M > 100 µM | ACHN > 100 µM | SN12C > 100 µM | PC-3 > 100 µM | HL-60 33.5 µM | T47D 22.4 µM | HCC 2998 > 100 µM | SK-MEL-5 54.2 µM | CCRF-CEM > 100 µM | 786-0 > 100 µM | SK-MEL-28 > 100 µM | OVCAR-8 > 100 µM | A549 > 100 µM | SK-MEL-2 > 100 µM | SR 58.7 µM | UACC-62 > 100 µM | SF-268 > 100 µM

CC[C@@]1(O)C(=O)OCc2c1cc1n(c2=O)Cc2c-1nc1ccccc1c2/C=N/c1ccccc1N[C@@H]1c2cc3c(cc2[C@@H](c2cc(OC)c(O)c(OC)c2)[C@H]2C(=O)OC[C@@H]21)OCO3
active: CAKI-1 0.0225 µM | NCI-H226 0.0702 µM | MOLT-4 < 0.01 µM | MCF7 < 0.0115 µM | NCI-H460 < 0.01 µM | SNB-75 0.051 µM | SW-620 0.132 µM | HCT-116 0.0469 µM | UACC-257 0.412 µM | U-251 0.296 µM | LOX IMVI 0.0138 µM | HOP-92 0.224 µM | HOP-62 < 0.0189 µM | M14 0.04 µM | RPMI-8226 0.27 µM | Malme-3M 0.394 µM | ACHN < 0.0145 µM | PC-3 0.284 µM | T47D 0.0236 µM | SK-MEL-5 0.0955 µM | 786-0 0.0213 µM | A549 0.0411 µM | UACC-62 0.0264 µM | SF-268 0.0285 µM

— ChEMBL document CHEMBL1201862, “PubChem BioAssay data set” (2004)
